Measurements published in US7932271B2, “Heterocyclic methyl sulfone derivative” (Daiichi Pharmaceutical Co., Ltd., priority 2003, dated 2011).

What was measured:
[1] = test system: β amyloid protein (Aβ) secreted by E35 cells (human glioma H4 cells transfected with APP751 gene); assay: Inhibition of production or secretion of β-amyloid protein (Aβ) in E35 cells, sandwich ELISA of the supernatant; type: cell-based; conditions: 24 hours with test compound, compared to DMSO control cells, read-out: Activity (IC50, concentration at which 50% inhibition of Aβ production was observed)
Experimental: The inhibitory activity against formation of β amyloid protein of the compounds obtained in Examples was tested in the method described bellow.
E35 cells were established by transfecting APP751 gene which is a wild type human β-amyloid protein precursor into human glioma cells (H4 cells).
E35 cells were seeded in 96-well plates and cultured in an incubator of 37° C. by using a Dulbecco's Modified Eagle's Medium containing 10% inactivated fetal bovine serum (10% FBS-DMEM). Twenty-four hours after seeding, a test compound dissolved in DMSO so as to give its concentration to be 2000 times as much as that of the final concentration was added to the medium in an amount of 1/2000 capacity of the culture medium. The cells were cultured for additional twenty-four hours, and then the supernatant was collected. The amount of β amyloid protein (Aβ) secreted in the supernatant was measured by the sandwich enzyme-linked immunosorbent assay (ELISA). Described specifically, a monoclonal antibody 25-1, which recognized Aβ25-35, was immobilized onto a 96-well ELISA plate, followed by the incubation at 4° C. for 16 to 20 hours. After washing with a phosphate buffer (pH 7.4) (PBS), a biotinylated monoclonal antibody MA32-40, which recognized Aβ1-8, was added, and the plate was kept at 4° C. for 2 hours. After the supernatant was removed and the well was washed sufficiently with PBS, alkaline phosphatase-conjugated streptavidin was added to the plate. Absorbance was measured while adding BlouPhos (manufactured by KPL) as a substrate. An amount of Aβ contained in the supernatant was calculated using a calibration curve separately created using Aβ of a known concentration. IC50 of the test compound was presented as the concentration at which 50% inhibition of Aβ production was observed compared to the amount of Aβ of the control cells to which only DMSO was added.
When there is at least 10-times difference between the IC50 and the concentration at which cytotoxicity appears, then the compound is judged as a compound having an inhibitory activity against production or secretion of β amyloid protein.

Row | SMILES | IC50 [1] [nM] | melting point [°C]
1 | COc1c(C(c2cc(F)ccc2F)S(=O)(=O)c2ccc(Cl)cc2)c(=O)oc2ccccc12 (stereo not shown) [23 (Compound A), 3-[[(4-Chlorophenyl)sulfonyl]-(2,5-difluorophenyl)methyl]-4-methoxychromen-2-one] | 5 to 50 | 
2 | CS(=O)(=O)Nc1cc(C(Sc2ccc(Cl)cc2)c2cc(F)ccc2F)c(Cl)cn1 (stereo not shown) [220 (B), N-[5-chloro-4-[(4-chlorophenylthio)(2,5-difluorophenyl)methyl]pyridin-2-yl]methanesulfonamide] | 50 to 500 | 
3 | [O-][S+](c1ccc(Cl)cc1)C(c1cc(F)ccc1F)c1ccncc1Cl (stereo not shown) [Example 56, 3-Chloro-4-[(4-chlorophenylsulfinyl)-(2,5-difluorophenyl)methyl]pyridine] | 5 to 50 | 
4 | O=S(=O)(c1ccc(Cl)cc1)C(c1cc(F)ccc1F)c1cc(Cl)ncc1Cl (stereo not shown) [Example 57, 2,5-Dichloro-4-[(4-chlorophenylsulfonyl)-(2,5-difluorophenyl)methyl]pyridine 0.5 hydrate] | 5 to 50 | 
5 | O=S(=O)(c1ccc(Cl)cc1)C(c1cc(F)ccc1F)c1cc(NCC[N+]2([O-])CCOCC2)ncc1Cl (stereo not shown) [Example 61, 4-[2-[5-Chloro-4-[(4-chlorophenylsulfonyl)-(2,5-difluorophenyl)methyl]pyridin-2-yl]aminoethyl]morpholine-N-oxide] | < 5 | 
6 | CS(=O)(=O)NCc1ccc(C(c2cc(F)ccc2F)S(=O)(=O)c2ccc(Cl)cc2)nc1 (stereo not shown) [Example 82, N-[[6-(4-Chlorophenylsulfonyl)(2,5-difluorophenyl)methylpyridin-3-yl]methyl]methanesulfonamide] | 50 to 500 | 
7 | COC(=O)OCc1ccc(C(c2cc(F)ccc2F)S(=O)(=O)c2ccc(Cl)cc2)nc1 (stereo not shown) [Example 84, [6-(4-Chlorophenylsulfonyl)(2,5-difluorophenyl)methylpyridin-3-yl]methyl methylcarbonate] | 50 to 500 | 
8 | O=S(=O)(c1ccc(Cl)cc1)C(c1cc(F)ccc1F)c1cc(NCCCNc2ncccn2)ncc1Cl (stereo not shown) [Example 175, N-[5-Chloro-4-[(4-chlorophenylsulfonyl)-(2,5-difluorophenyl)methyl]pyridin-2-yl]-N′-(pyrimidin-2-yl)propane-1,3-diamine] |  | 176 to 178
9 | Fc1ccc(SC(c2cc(F)ccc2F)c2cc(Cl)ncc2Cl)cc1 (stereo not shown) [Example 177, 2,5-Dichloro-4-[(2,5-difluorophenyl)-(4-fluorophenylthio)methyl]pyridine] |  | 95 to 97
10 | O=S(=O)(c1ccc(F)cc1)C(c1cc(F)ccc1F)c1cc(NCCO)ncc1Cl (stereo not shown) [Example 179, 2-[[5-Chloro-4-[(2,5-difluorophenyl)-(4-fluorophenylsulfonyl)methyl]pyridin-2-yl]amino]ethanol] |  | 157 to 158
11 | O=S(=O)(c1ccc(Cl)cc1)C(c1cc(F)ccc1F)c1cc(NCCc2ccncc2)ncc1Cl (stereo not shown) [Example 181, 5-Chloro-4-[(4-chlorophenylsulfonyl)(2,5-difluorophenyl)methyl]-2-[2-(pyridin-4-yl)ethylamino]pyridine] |  | 148 to 150
12 | O=S(=O)(c1ccc(Cl)cc1)C(c1cc(F)ccc1F)c1cc(NCCOCCO)ncc1Cl (stereo not shown) [Example 183, 2-[2-[5-Chloro-4-[(4-chlorophenylsulfonyl)(2,5-difluorophenyl)methyl]pyridin-2-ylamino]ethoxy]ethanol] |  | 113 to 115
13 | COCCCNc1cc(C(c2cc(F)ccc2F)S(=O)(=O)c2ccc(Cl)cc2)c(Cl)cn1 (stereo not shown) [Example 184] |  | 146 to 148
14 | COc1ccc(CNc2cc(C(c3cc(F)ccc3F)S(=O)(=O)c3ccc(Cl)cc3)c(Cl)cn2)cc1OC (stereo not shown) [Example 186, 5-Chloro-4-[(4-chlorophenylsulfonyl)(2,5-difluorophenyl)methyl]-2-(3,4-dimethoxybenzylamino)pyridine] |  | 204 to 206
15 | O=S(=O)(c1ccc(Cl)cc1)C(c1cc(F)ccc1F)c1cc(NCc2ccncc2)ncc1Cl (stereo not shown) [Example 188, 5-Chloro-4-[(4-chlorophenylsulfonyl)(2,5-difluorophenyl)methyl]-2-[(pyridin-4-ylmethyl)amino]pyridine] |  | 141 to 142
16 | CS(=O)(=O)NCCCNc1cc(C(c2cc(F)ccc2F)S(=O)(=O)c2ccc(Cl)cc2)c(Cl)cn1 (stereo not shown) [Example 189, N-[3-[[5-Chloro-4-[(4-chlorophenylsulfonyl)-(2,5-difluorophenyl)methyl]pyridin-2-yl]amino]propyl]methanesulfonamide] |  | 138 to 139

The next lines start with the values.

Row | IC50 [1] [nM] | melting point [°C] | SMILES
17 |  | > 230 | O=C1NCCCN1c1cc(C(c2cc(F)ccc2F)S(=O)(=O)c2ccc(Cl)cc2)c(Cl)cn1 (stereo not shown) [Example 190, 1-[5-Chloro-4-[(4-chlorophenylsulfonyl)-(2,5-difluorophenyl)methyl]pyridin-2-yl]tetrahydropyrimidin-2-one]
18 |  | 176 to 178 | CC(C)(CO)CNc1cc(C(c2cc(F)ccc2F)S(=O)(=O)c2ccc(Cl)cc2)c(Cl)cn1 (stereo not shown) [Example 195, 3-[5-Chloro-4-[(4-chlorophenylsulfonyl)(2,5-difluorophenyl)methyl]pyridin-2-ylamino]-2,2-dimethylpropan-1-ol]
19 |  | 208 to 209 | O=C(O)c1cc(C(c2cc(F)ccc2F)S(=O)(=O)c2ccc(Cl)cc2)c(F)cn1 (stereo not shown) [Example 201, 4-[(4-Chlorophenylsulfonyl)(2,5-difluorophenyl)methyl]-5-fluoropicolinic acid]
20 |  | 217 to 219 | CS(=O)(=O)Nc1cc(C(c2cc(F)ccc2F)S(=O)(=O)c2ccc(Cl)cc2)c(F)cn1 (stereo not shown) [Example 204, N-[4-[(4-Chlorophenylsulfonyl)(2,5-difluorophenyl)methyl]-5-fluoropyridin-2-yl]methanesulfonamide]
21 |  | 196 to 198 | Cc1cnc(CO)cc1C(c1cc(F)ccc1F)S(=O)(=O)c1ccc(Cl)cc1 (stereo not shown) [Example 207, [4-[(4-Chlorophenylsulfonyl)(2,5-difluorophenyl)methyl]-5-methylpyridin-2-yl]methanol]
22 |  | 105 to 107 | Cc1cnc(C(=O)O)cc1C(c1cc(F)ccc1F)S(=O)(=O)c1ccc(Cl)cc1 (stereo not shown) [Example 209, 4-[(4-Chlorophenylsulfonyl)(2,5-difluorophenyl)methyl]-5-methylpicolinic acid]
23 |  | 214 to 217 | Cc1cnc(NS(C)(=O)=O)cc1C(c1cc(F)ccc1F)S(=O)(=O)c1ccc(Cl)cc1 (stereo not shown) [Example 212, N-[4-[(4-Chlorophenylsulfonyl)(2,5-difluorophenyl)methyl]-5-methylpyridin-2-yl]methanesulfonamide]
24 |  | 158 to 159 | COc1ccc(CNc2cc(C(c3cc(F)ccc3F)S(=O)(=O)c3ccc(F)cc3)c(Cl)cn2)cc1OC (stereo not shown) [Example 214, [5-Chloro-4-[(2,5-difluorophenyl)-(4-fluorophenylsulfonyl)methyl]pyridin-2-yl](3,4-dimethoxybenzyl)amine]
25 |  | 172 to 173 | O=S(=O)(c1ccc(Cl)cc1)C(c1cc(F)ccc1F)c1cc(CO)ncc1Br (stereo not shown) [Example 228, [5-Bromo-4-[(4-chlorophenylsulfonyl)(2,5-difluorophenyl)methyl]pyridin-2-yl]methanol]
26 |  | 204 to 206 | Nc1cc(C(c2cc(F)ccc2F)S(=O)(=O)c2ccc(Cl)cc2)c(Br)cn1 (stereo not shown) [Example 232, [5-Bromo-4-[(4-chlorophenylsulfonyl)(2,5-difluorophenyl)methyl]pyridin-2-yl]amine]
27 |  | 164 to 165 | O=S(=O)(c1ccc(Cl)cc1)C(c1cc(F)ccc1F)c1cc(CO)ncc1Cl (stereo not shown) [Example 257, [5-Chloro-4-[(4-chlorophenylsulfonyl)(2,5-difluorophenyl)methyl]pyridin-2-yl]methanol]
28 |  | 94 to 96 | O=C(O)c1cc(C(c2cc(F)ccc2F)S(=O)(=O)c2ccc(Cl)cc2)c(Cl)cn1 (stereo not shown) [Example 262, 5-Chloro-4-[(4-chlorophenylsulfonyl)(2,5-difluorophenyl)methyl]picolinic acid]
29 |  | 155 to 158 | O=S(=O)(CCO)Nc1cc(C(c2cc(F)ccc2F)S(=O)(=O)c2ccc(Cl)cc2)c(Cl)cn1 (stereo not shown) [Example 284, N-[5-Chloro-4-[(4-chlorophenylsulfonyl)(2,5-difluorophenyl)methyl]pyridin-2-yl]-2-hydroxyethanesulfonamide]
30 |  | 147 to 148 | O=C(O)CCCc1cc(C(c2cc(F)ccc2F)S(=O)(=O)c2ccc(Cl)cc2)c(Cl)cn1 (stereo not shown) [Example 289, 4-[5-Chloro-4-[(4-chlorophenylsulfonyl)(2,5-difluorophenyl)methyl]pyridin-2-yl]butyric acid]
31 |  | 179 to 181 | Nc1cc(C(c2c(F)cccc2F)S(=O)(=O)c2ccc(Cl)cc2)c(Cl)cn1 (stereo not shown) [Example 296, 5-Chloro-4-[(4-chlorophenylsulfonyl)(2,6-difluorophenyl)methyl]pyridin-2-ylamine]
